How the values were obtained:
Assay type in all cases: in vivo, Wistar rats
[1] = Plasma concentrations and pharmacokinetics after intravenous bolus of C3G (NCA and two-compartment model); details: male, Wistar, rat, plasma, iv; for concentration at 2 min: 2 min after i.v. 668 nmol C3G; for concentration at 2 min / concentration at 0.25 min / concentration at 5 min / concentration at 15 min / concentration at 20 min: mean ± SEM n=4; for AUC0-t / half-life: i.v. 668 nmol C3G; for AUC0-t: read-out: AUC0–20 (converted); for half-life: 668 nmol, read-out: Half life; for concentration at 0.25 min: 0.25 min after i.v. 668 nmol C3G; for concentration at 5 min: 5 min after i.v. 668 nmol C3G; for concentration at 15 min: 15 min after i.v. 668 nmol C3G; for concentration at 20 min: 20 min after i.v. 668 nmol C3G
Source text: (§1) Twenty-two male Wistar rats (Rattus Norvegicus, Harlan Italy S.r.l.), of same age (15 weeks), 293–390 g of body weight, were used. The rats were randomly divided into 5 groups, according to the time that elapsed after intravenous administration of the test compound, and one control group. Each time point was represented by four biological replicates. All animals were allowed to acclimate to the animal facility of the University of Trieste for at least 2 week before studies were initiated. The experimental design was vetted and approved by the bioethical committee of the University of Trieste (internal code 140PAS14), according to the provisions of the European Community Council Directive 2010/63/EU[39]. The methods were carried out in accordance with the approved guidelines. The animals (n = 22) were maintained in cages in a room at 23 ± 2 °C, 50–60% humidity with a 12-hour light-dark cycle. The night before the experiment, food was withdrawn from the cages but water was given ad libitum. On the day of the experiment, the rats were anesthetized with intra-peritoneal administration of tiletamine/zolazepam (1:1, 25 mg/kg body weight) and xylazine (10 mg/kg body weight). During anaesthesia (10 min in all cases), the heart and ventilation rate were monitored. The rats were placed on their backs, with the ventral side up and with the legs spread separately on a thermo-isolated support. The penis was extruded by sliding the prepuce downwards. The dorsal penis vein was then seen along both sides of the penis and exactly 10 min after anaesthesia 0.2 mL PBS without (control group) or with (treated group) 668 nmol cyanidin 3-glucoside (C3G) in PBS was injected using a 24-G hypodermic needle. Then the injection site was pressed with a swab for a few seconds, and the glans was encouraged to retract to prevent further bleeding. One min before sacrificing the rats, sodium heparin (0.1 ml, 500 IU) was injected again into the dorsal penis vein, exposed in the same way. […] Blood draining and excision of the organs were carried out according to the literature. In detail, blood was collected from the neck of rats hold upside down, immediately after their decapitation, which happened at the time points sharp. Exsanguination took 5 seconds; laparotomy and excision of the liver and the kidneys took 5 more seconds. The post-decapitation procedures were standardised. Urine was collected through the urinary bladder with a syringe before decapitation. Kidneys, liver and brain were washed with mQ water, immediately frozen in liquid nitrogen and stored at −80 °C.
(§2) Immediately after sampling, 5 mL of blood were transferred into ice-cold (−20 °C), deoxygenated aqueous 95% methanol in a ratio 1:9 (v/v). The urine was weighted and transferred into ice-cold, deoxygenated aqueous 95% methanol at a ratio of 1:9 (w/v). Frozen kidneys, liver and brain were grounded under cryogenic conditions (−196 °C) to 5 μm particles in a CryoMill (Retsch, Germany), using a single 25 mm i. d. steel ball (30 seconds, 25/sec frequency). The pulverized tissue was rapidly transferred (without thawing) into ice-cold, deoxygenated aqueous 95% methanol at a ratio of 1:9 (w/v). Cinnamic acid-d5, as internal standard, was dissolved in the aqueous methanol at concentration of 0.1 mg/L for the monitoring of the extraction protocol in biofluids and tissues.
(§3) All samples were extracted with an orbital shaker for 10 min at room temperature. The methanol extracts were then centrifuged for 5 min at 3600 rpm at 4 °C, decanted under a stream of nitrogen in 50 mL dark glass vessels and stored at −80 °C. Clean-up of extracted samples in methanol was performed by solid phase extraction (SPE), as previously described. Briefly, 5 mL of extracted samples were evaporated on a rotary evaporator and reconstituted in 10 mL of acidified water. Anthocyanins were extracted by solid-phase adsorption onto a hydrophobic matrix (Sep-Pak C18, 0.35 g, Waters, Milford, MA). […]

[2] = Urinary excretion after intravenous C3G
Source text: as §1, §2, §3

[3] = Brain concentrations and tissue pharmacokinetics after intravenous C3G; details: for AUC0-t: i.v. 668 nmol C3G
Source text: as §1, §2, §3

[4] = Kidney concentrations and tissue pharmacokinetics after intravenous C3G; details: for MTTK (Mean Transit time in kidneys) / AUC0-t / half-life: kidneys; for half-life: iv
Source text: as §1, §2, §3

[5] = Liver concentrations and tissue pharmacokinetics after intravenous C3G; details: for AUC0-t: i.v. 668 nmol C3G
Source text: as §1, §2, §3

[6] = 0.25 min after i.v. 668 nmol C3G
[7] = 0.25–20 min after i.v. 668 nmol C3G
[8] = 0.25 min after i.v. 668 nmol C3G, mean ± SEM n=4
[9] = male, Wistar, rat, kidney, 668 nmol

Compound	concentration at 2 min [1] [nM]	Urine concentration [2, 6] [pmol/g]	Urine concentration ([2]; 2 min after i.v. 668 nmol C3G) [pmol/g]	Urine concentration ([2]; 5 min after i.v. 668 nmol C3G) [pmol/g]	Urine concentration ([2]; 15 min after i.v. 668 nmol C3G) [pmol/g]	Urine concentration ([2]; 20 min after i.v. 668 nmol C3G) [pmol/g]	AUC0-t [1] [nM·h]	half-life [1] [min]	concentration at 0.25 min [1] [nM]	concentration at 5 min [1] [nM]	concentration at 15 min [1] [nM]	concentration at 20 min [1] [nM]	Mean concentration in brain ([3]; 2 min after i.v. 668 nmol C3G) [pmol/g]	Mean concentration in brain ([3]; 5 min after i.v. 668 nmol C3G) [pmol/g]	Mean concentration in liver [5, 8] [pmol/g]	Mean concentration in liver ([5]; 2 min after i.v. 668 nmol C3G) [pmol/g]	Mean concentration in liver ([5]; 5 min after i.v. 668 nmol C3G) [pmol/g]	Mean concentration in liver ([5]; 15 min after i.v. 668 nmol C3G) [pmol/g]	Mean concentration in liver ([5]; 20 min after i.v. 668 nmol C3G) [pmol/g]	AUC0-t ([5]; liver) [pmol·min/g]	also measured
OC[C@H]1O[C@@H](Oc2cc3c(O)cc(O)cc3[o+]c2-c2cc(O)c(O)c(O)c2)[C@H](O)[C@@H](O)[C@@H]1O [D3G, Delphinidin-3-O-β-glucoside]	12.8 ± 10.5	20 ± 10	30 ± 0	50 ± 10	20 ± 10	30 ± 10	–	–	–	–	–	–	–	–	–	–	–	–	–	–	–
COc1cc(-c2[o+]c3cc(O)cc(O)c3cc2O[C@@H]2O[C@H](CO)[C@@H](O)[C@H](O)[C@H]2O)cc(OC)c1O [M3G, Malvidin-3-O-β-glucoside]	95.8 ± 61.7	28.35 ± 17.87	9.57 ± 4.52	5.15 ± 1.88	3.17 ± 1.64	–	5.72	5.29	9.13 ± 3.46	16.4 ± 13.1	3.67 ± 0.14	8.6 ± 3.88	–	–	–	–	–	–	–	–	–
OC[C@H]1O[C@@H](Oc2cc3c(O)cc(O)cc3[o+]c2-c2ccc(O)cc2)[C@H](O)[C@@H](O)[C@@H]1O [PG3G, Pelargonidin-3-O-β-glucoside]	1.89 ± 0.17	1.57 ± 0.40	7.92 ± 2.59	47.09 ± 4.16	33.22 ± 16.09	20.98 ± 5.61	0.673	44.7	4.5 ± 0.62	2.01 ± 0.28	1.9 ± 0.19	1.55 ± 0.13	–	–	–	–	–	–	–	–	–
COc1cc(-c2[o+]c3cc(O)cc(O)c3cc2O[C@@H]2O[C@H](CO)[C@@H](O)[C@H](O)[C@H]2O)ccc1O [PN3G, Peonidin-3-O-β-glucoside]	13.1 ± 2.35	10 ± 0	1480 ± 410	6540 ± 330	5670 ± 2240	5160 ± 1110	2.91	8.16	33.7 ± 5.51	12.3 ± 1.37	3.73 ± 0.94	3.4 ± 0.22	2.07 ± 1.18	0.70 ± 0.30	539.38 ± 71.33	317.61 ± 35.86	364.74 ± 44.85	216.10 ± 36.06	100.84 ± 6.33	5610.12	Amounts found in brain (range over sampling times) [3, 7]: 0.37 to 2.07 pmol/g; Mean concentration in brain ([3]; 15 min after i.v. 668 nmol C3G): 0.40 ± 0.38 pmol/g; Mean concentration in brain ([3]; 20 min after i.v. 668 nmol C3G): 0.37 ± 0.13 pmol/g; MTTB (Mean Transit Time in the brain) ([3]; brain): 8.61 min; AUC0-t ([3]; brain): 17.10 pmol·min/g; half-life ([3]; male, Wistar, rat, brain, iv, 668 nmol): 15.6 min; Kp ([3]; male, Wistar, rat, intravenous, 668 nmol, brain vs plasma, read-out: AUC in brain as share of that in plasma): 0.0978; Mean concentration in kidneys [4, 8]: 1.99 ± 0.55 nmol/g; Mean concentration in kidneys ([4]; 2 min after i.v. 668 nmol C3G): 1.56 ± 0.18 nmol/g; Mean concentration in kidneys ([4]; 5 min after i.v. 668 nmol C3G): 0.85 ± 0.08 nmol/g; Mean concentration in kidneys ([4]; 15 min after i.v. 668 nmol C3G): 0.89 ± 0.22 nmol/g; Mean concentration in kidneys ([4]; 20 min after i.v. 668 nmol C3G): 0.90 ± 0.14 nmol/g; MTTK (Mean Transit time in kidneys) [4]: 23.11 min; AUC0-t ([4]; i.v. 668 nmol C3G): 20.36 nmol·min/g; Kp ([4]; male, Wistar, rat, kidney, intravenous, 668 nmol, kidneys vs plasma, read-out: AUC in kidneys relative to plasma): 116; half-life [4, 9]: 20.8 min; Amounts found in liver (range over sampling times) [5, 7]: 100.84 to 539.38 pmol/g; MTTL (Mean Transit Time in the liver) ([5]; liver): 3.93 min; Kp ([5]; male, Wistar, rat, intravenous, 668 nmol, liver vs plasma, read-out: AUC in liver relative to plasma): 32.1; half-life ([5]; male, Wistar, rat, liver, iv, 668 nmol, read-out: Half-life): 9.99 min
COc1cc(-c2[o+]c3cc(O)cc(O)c3cc2O[C@@H]2O[C@H](CO)[C@@H](O)[C@H](O)[C@H]2O)cc(O)c1O [PT3G, Petunidin-3-O-β-glucoside]	4.95 ± 3.16	4.58 ± 2.84	3.30 ± 1.59	–	–	–	–	–	2.2 ± 1.05	1.71 ± 1.39	–	–	1.15 ± 0.62	1.01 ± 0.46	1.23 ± 0.59	2.42 ± 0.08	1.09 ± 0.52	1.60 ± 0.44	3.06 ± 0.19	33.85	Mean concentration in brain ([3]; 15 min after i.v. 668 nmol C3G): 2.45 ± 0.22 pmol/g; Mean concentration in brain ([3]; 20 min after i.v. 668 nmol C3G): 1.90 ± 0.60 pmol/g; AUC0-t ([3]; brain): 32.42 pmol·min/g; Mean concentration in kidneys [4, 6]: 0.00204 ± 0.00059 nmol/g; Mean concentration in kidneys ([4]; 2 min after i.v. 668 nmol C3G): 0.00282 ± 0.00028 nmol/g; Mean concentration in kidneys ([4]; 5 min after i.v. 668 nmol C3G): 0.0024 ± 0.00013 nmol/g; Mean concentration in kidneys ([4]; 15 min after i.v. 668 nmol C3G): 0.00229 ± 7e-05 nmol/g; Mean concentration in kidneys ([4]; 20 min after i.v. 668 nmol C3G): 0.00253 ± 0.00026 nmol/g; MTTK (Mean Transit time in kidneys) [4]: 187.44 min; AUC0-t ([4]; unit per footnote *): 48.13 ^* pmol g^–1 min^–1; half-life [4, 9]: 135 min
COc1ccc(-c2[o+]c3cc(O)cc(O)c3cc2O[C@@H]2O[C@H](CO)[C@@H](O)[C@H](O)[C@H]2O)cc1O [isoPN3G]	–	–	–	–	–	–	–	–	–	–	–	–	–	–	13.86 ± 4.32	6.19 ± 2.09	15.85 ± 1.82	1.39 ± 1.14	0.64 ± 0.25	145.57	half-life ([5]; liver): 3.18 min; Peak relative to PN3G ([5]; liver only): around 2.59 % of PN3G

Reference: article PMC4786809, “Determination of cyanidin 3-glucoside in rat brain, liver and kidneys by UPLC/MS-MS and its application to a short-term pharmacokinetic study” (Scientific Reports, 2016)
